The numbers were not newly measured in patent publication US7091196B2, “Bifunctional heterocyclic compounds and methods of making and using same” (Rib-X Pharmaceuticals, Inc., priority 2002, dated 2006), which cites them from elsewhere.

Structures are written as SMILES.

For the data set the following is noted: literature report, Gregory et al. (1989) J. Med. Chem. 32: 1673-1681.

Turning to `COC(=O)c1nnn(C[C@@H]2CN(c3ccc(C(C)=O)cc3)C(=O)O2)c1C(=O)OC` [Compound 6], the “activity as an antibacterial agent” value was “inactive”.
